Source: ChEMBL document CHEMBL1134418, “Synthesis of tetrocarcin derivatives with specific inhibitory activity towards Bcl-2 functions” (2001)
Converted amounts (≈) assume the structure as drawn.

Columns and labels:
Bacillus subtilis = assay: Antibacterial activity was evaluated against Bacillus subtilis; type: functional
[1] = target: Apoptosis regulator Bcl-2 (Homo sapiens) (UniProt P10415); assay: Effect on DEVD cleavage by DEVDase assay with anti-Fas antibody treatment using Bcl-2 overexpressing HeLa cells; 3 fold activation concentration (AC3); type: functional, cell-based
Sequence of Apoptosis regulator Bcl-2 (Homo sapiens) (P10415 whole entry): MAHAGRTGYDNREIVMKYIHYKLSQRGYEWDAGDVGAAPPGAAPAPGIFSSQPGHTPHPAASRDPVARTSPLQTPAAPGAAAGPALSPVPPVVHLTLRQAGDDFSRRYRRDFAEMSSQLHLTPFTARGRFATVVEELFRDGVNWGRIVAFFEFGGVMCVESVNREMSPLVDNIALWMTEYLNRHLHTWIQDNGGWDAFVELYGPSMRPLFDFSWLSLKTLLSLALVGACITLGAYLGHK

[2] = target: Apoptosis regulator Bcl-2 (Homo sapiens) (UniProt P10415); assay: Effect on DEVD cleavage by DEVDase assay without anti-Fas antibody using Bcl-2 overexpressing HeLa cells; 3 fold activation concentration (AC3); type: functional, cell-based
HeLa [3] = assay: Evaluated for HeLa cell viability with anti-Fas antibody treatment by XTT assay; 3 fold activation concentration (AC3); type: functional, Homo sapiens
HeLa [4] = assay: Evaluated for HeLa cell viability without anti-Fas antibody treatment by XTT assay; 3 fold activation concentration (AC3); type: functional, Homo sapiens

| MIC (Bacillus subtilis) [µg/mL] | AC3 [1] [µM] | AC3 [2] [µM] | Compound | AC3 (HeLa [3]) [µM] | AC3 (HeLa [4]) [µM] |
| --- | --- | --- | --- | --- | --- |
| > 50 | 8.4 | > 10 | COC(=O)NC1[C@H](C)O[C@@H](O[C@H]2C/C=C(\C)[C@@H]3C=C[C@@H]4[C@@H](O)[C@@H](C)C[C@H](C)[C@H]4[C@]3(C)/C(O)=C3\C(=O)O[C@]4(CC(C=O)=C[C@H](OC(C)=O)[C@H]4/C=C\2C)C3=O)CC1(C)[N+](=O)[O-] (stereo not given in full) | >10 | >10 |
| > 50 | 1.3 | 1.8 | COC(=O)NC1[C@H](C)O[C@@H](O[C@H]2C/C=C(\C)[C@@H]3C=C[C@@H]4[C@@H](O[Si](C)(C)C(C)(C)C)[C@@H](C)C[C@H](C)[C@H]4[C@]3(C)/C(O)=C3\C(=O)O[C@]4(CC(C=O)=C[C@H](O)[C@H]4/C=C\2C)C3=O)CC1(C)[N+](=O)[O-] (stereo not given in full) | 2 | 2 |
| > 50 | 3.8 | 4.8 | COC(=O)NC1[C@H](C)O[C@@H](O[C@H]2C/C=C(\C)[C@@H]3C=C[C@@H]4[C@@H](OCc5ccc(OC)cc5)[C@@H](C)C[C@H](C)[C@H]4[C@]3(C)/C(O)=C3\C(=O)O[C@]4(CC(C=O)=C[C@H](OC(C)=O)[C@H]4/C=C\2C)C3=O)CC1(C)[N+](=O)[O-] (stereo not given in full) | 7.6 | 5.8 |
| 6.3 (≈ 6.93 µM) | 3.9 | 4.9 | COC(=O)NC1[C@H](C)O[C@@H](O[C@H]2C/C=C(\C)[C@@H]3C=C[C@@H]4[C@@H](O[C@H]5CCCCO5)[C@@H](C)C[C@H](C)[C@H]4[C@]3(C)/C(O)=C3\C(=O)O[C@]4(CC(C=O)=C[C@H](OC(C)=O)[C@H]4/C=C\2C)C3=O)CC1(C)[N+](=O)[O-] (stereo not given in full) | 3.9 | 4.8 |
| > 50 | 5.7 | > 10 | COC(=O)NC1[C@H](C)O[C@@H](O[C@H]2C/C=C(\C)[C@@H]3C=C[C@@H]4[C@@H](OC5(C)O[C@@H]6OC(COC(C)=O)[C@@H](OC(C)=O)C(OC(C)=O)[C@@H]6O5)[C@@H](C)C[C@H](C)[C@H]4[C@]3(C)/C(O)=C3\C(=O)O[C@]4(CC(C=O)=C[C@H](OC(C)=O)[C@H]4/C=C\2C)C3=O)CC1(C)[N+](=O)[O-] (stereo not given in full) | 1.8 | >10 |
| > 50 | > 10 | > 10 | COC(=O)NC1[C@H](C)O[C@@H](O[C@H]2C/C=C(\C)[C@@H]3C=C[C@@H]4[C@@H](O)[C@@H](C)C[C@H](C)[C@H]4[C@]3(C)/C(O)=C3\C(=O)O[C@]4(CC(C=O)=C[C@H](O)[C@H]4/C=C\2C)C3=O)CC1(C)[N+](=O)[O-] (stereo not given in full) | >10 | >10 |
| > 50 | 3.6 | > 10 | COC(=O)NC1[C@H](C)O[C@@H](O[C@H]2C/C=C(\C)[C@@H]3C=C[C@@H]4[C@@H](OC5C=C[C@H](O)[C@H](C)O5)[C@@H](C)C[C@H](C)[C@H]4[C@]3(C)/C(O)=C3\C(=O)O[C@]4(CC(C=O)=C[C@H](OC(C)=O)[C@H]4/C=C\2C)C3=O)CC1(C)[N+](=O)[O-] (stereo not given in full) | 3.7 | >10 |
| > 50 | > 10 | > 10 | COC(=O)NC1[C@H](C)O[C@@H](O[C@H]2C/C=C(\C)[C@@H]3C=C[C@@H]4[C@@H](O)[C@@H](C)C[C@H](C)[C@H]4[C@]3(C)/C(O)=C3\C(=O)O[C@]4(CC(C=O)=C[C@H](O[Si](C)(C)C(C)(C)C)[C@H]4/C=C\2C)C3=O)CC1(C)[N+](=O)[O-] (stereo not given in full) | >10 | >10 |
| > 50 | > 10 | > 10 | COC(=O)NC1[C@H](C)O[C@@H](O[C@H]2C/C=C(\C)[C@@H]3C=C[C@@H]4[C@@H](O[Si](C)(C)C(C)(C)C)[C@@H](C)C[C@H](C)[C@H]4[C@]3(C)/C(O)=C3\C(=O)O[C@]4(CC(C=O)=C[C@H](O[Si](C)(C)C(C)(C)C)[C@H]4/C=C\2C)C3=O)CC1(C)[N+](=O)[O-] (stereo not given in full) | >10 | >10 |
| > 50 | > 10 | > 10 | COCCOCCOCC(=O)O[C@@H]1[C@H]2C=C[C@H]3/C(C)=C/C[C@H](O[C@H]4CC(C)([N+](=O)[O-])C(NC(=O)OC)[C@H](C)O4)/C(C)=C\[C@@H]4[C@@H](O)C=C(C=O)C[C@]45OC(O)=C(C(=O)[C@@]3(C)[C@@H]2[C@@H](C)C[C@@H]1C)C5=O (stereo not given in full) | >10 | >10 |
| > 50 | 9.5 | > 10 | COCCOCCOCC(=O)O[C@@H]1[C@H]2C=C[C@H]3/C(C)=C/C[C@H](O[C@H]4CC(C)([N+](=O)[O-])C(NC(=O)OC)[C@H](C)O4)/C(C)=C\[C@@H]4[C@@H](O[Si](C)(C)C(C)(C)C)C=C(C=O)C[C@]45OC(O)=C(C(=O)[C@@]3(C)[C@@H]2[C@@H](C)C[C@@H]1C)C5=O (stereo not given in full) | 3.9 | 6.4 |
| 16.7 (≈ 16.1 µM) | 2.1 | > 10 | COC(=O)NC1[C@H](C)O[C@@H](O[C@H]2C/C=C(\C)[C@@H]3C=C[C@@H]4[C@@H](O[C@@H]5CC(OC(C)=O)C(OC(C)=O)[C@H](C)O5)[C@@H](C)C[C@H](C)[C@H]4[C@]3(C)/C(O)=C3\C(=O)O[C@]4(CC(C=O)=C[C@H](OC(C)=O)[C@H]4/C=C\2C)C3=O)CC1(C)[N+](=O)[O-] (stereo not given in full) | 1.1 | >10 |
| < 0.049 | 2.2 | 7.7 | COC(=O)NC1[C@H](C)O[C@@H](O[C@H]2C/C=C(\C)[C@@H]3C=C[C@@H]4[C@@H](OC5C[C@H](O[C@@H]6CCC(OC7C[C@H](O)[C@@H](OC8CC[C@@H](O)C(C)O8)C(C)O7)[C@H](C)O6)[C@@H](OC(C)=O)C(C)O5)[C@@H](C)C[C@H](C)[C@H]4[C@]3(C)/C(O)=C3\C(=O)O[C@]4(CC(C=O)=CC(O)[C@H]4/C=C\2C)C3=O)CC1(C)[N+](=O)[O-] (stereo not given in full) | 1.4 | 4 |

| Compound | MIC (Bacillus subtilis) [µg/mL] | AC3 [1] [µM] | AC3 [2] [µM] | AC3 (HeLa [3]) [µM] | AC3 (HeLa [4]) [µM] |
| --- | --- | --- | --- | --- | --- |
| CC[Si](CC)(CC)OO[C@H]1C=CC(O[C@@H]2[C@H]3C=C[C@H]4/C(C)=C/C[C@H](O[C@H]5CC(C)([N+](=O)[O-])C(NC(=O)OC)[C@H](C)O5)/C(C)=C\[C@@H]5[C@@H](OC(C)=O)C=C(C=O)C[C@]56OC(O)=C(C(=O)[C@@]4(C)[C@@H]3[C@@H](C)C[C@@H]2C)C6=O)O[C@H]1C (stereo not given in full) | > 50 | 4.9 | > 10 | 4.3 | >10 |
| COC(=O)NC1[C@H](C)O[C@@H](O[C@H]2C/C=C(\C)[C@@H]3C=C[C@@H]4[C@@H](OC5C[C@H](O[C@@H]6CCC(OC7C[C@H](O)[C@@H](OC8CC[C@@H](O)C(C)O8)C(C)O7)[C@H](C)O6)[C@@H](OC(C)=O)C(C)O5)[C@@H](C)C[C@H](C)[C@H]4[C@]3(C)C(=O)C3=C(OC)[C@@]4(CC(C=O)=CC(O)[C@H]4/C=C\2C)OC3=O)CC1(C)[N+](=O)[O-] (stereo not given in full) | 5.2 (≈ 3.92 µM) | 1 | 2.5 | 0.8 | 1.5 |
